≈ marks a conversion by molar mass, not a printed value.
Tests used:
Type in all cases: functional
Enterococcus faecium = test: Antibacterial activity against Enterococcus faecium ATCC 6569
Enterococcus faecalis = test: Antibacterial activity against Enterococcus faecalis ATCC 49452
Staphylococcus aureus [1] = test: Antibacterial activity against methicillin resistant Staphylococcus aureus ATCC 43300 (MRSA)
Staphylococcus aureus [2] = test: Antibacterial activity against methicillin susceptible Staphylococcus aureus ATCC 29213 (MSSA )

SMILES | MIC (Enterococcus faecium) [µg/mL] | MIC (Enterococcus faecalis) [µg/mL] | MIC (Staphylococcus aureus [1]) [µg/mL] | MIC (Staphylococcus aureus [2]) [µg/mL]
CCCCCCCCCC(=O)N[C@@H](Cc1c[nH]c2ccccc12)C(=O)N[C@H](CC(N)=O)C(=O)N[C@@H](CC(=O)O)C(=O)N[C@@H]1C(=O)NCC(=O)N[C@@H](CCCNC(=O)C(C)CC(=O)c2ccccc2N)C(=O)N[C@@H](CC(=O)O)C(=O)N[C@H](C)C(=O)N[C@@H](CC(=O)O)C(=O)NCC(=O)N[C@H](CO)C(=O)N[C@@H]([C@H](C)CC(=O)O)C(=O)N[C@@H](CC(=O)c2ccccc2N)C(=O)O[C@@H]1C (some centres undefined) | 6.25 (≈ 3.45 µM) | 12.5 (≈ 6.91 µM) | 1.56 (≈ 0.862 µM) | 1.56 (≈ 0.862 µM)
CCCCCCCCCC(=O)N[C@@H](Cc1c[nH]c2ccccc12)C(=O)N[C@H](CC(N)=O)C(=O)N[C@@H](CC(=O)O)C(=O)N[C@@H]1C(=O)NCC(=O)N[C@@H](CCCNC(=O)CCc2c[nH]c3ccccc23)C(=O)N[C@@H](CC(=O)O)C(=O)N[C@H](C)C(=O)N[C@@H](CC(=O)O)C(=O)NCC(=O)N[C@H](CO)C(=O)N[C@@H]([C@H](C)CC(=O)O)C(=O)N[C@@H](CC(=O)c2ccccc2N)C(=O)O[C@@H]1C | 12.5 (≈ 6.98 µM) | 25 (≈ 14 µM) | 1.56 (≈ 0.871 µM) | 1.56 (≈ 0.871 µM)
CCCCCCCCCC(=O)N[C@@H](Cc1c[nH]c2ccccc12)C(=O)N[C@@H](CC(N)=O)C(=O)N[C@@H](CC(=O)O)C(=O)N[C@@H]1C(=O)NCC(=O)N[C@@H](CCCNC(=O)C(N)Cc2c[nH]c3ccccc23)C(=O)N[C@@H](CC(=O)O)C(=O)N[C@H](C)C(=O)N[C@@H](CC(=O)O)C(=O)NCC(=O)N[C@H](CO)C(=O)N[C@@H]([C@H](C)CC(=O)O)C(=O)N[C@@H](CC(=O)c2ccccc2N)C(=O)O[C@@H]1C (some centres undefined) | 6.25 (≈ 3.46 µM) | 12.5 (≈ 6.92 µM) | 1.56 (≈ 0.863 µM) | 1.56 (≈ 0.863 µM)
CCCCCCCCCC(=O)N[C@@H](Cc1c[nH]c2ccccc12)C(=O)N[C@@H](CC(N)=O)C(=O)N[C@@H](CC(=O)O)C(=O)N[C@@H]1C(=O)NCC(=O)N[C@@H](CCCNC(=O)C(N)Cc2c[nH]c3ccc(OC)cc23)C(=O)N[C@@H](CC(=O)O)C(=O)N[C@H](C)C(=O)N[C@@H](CC(=O)O)C(=O)NCC(=O)N[C@H](CO)C(=O)N[C@@H]([C@H](C)CC(=O)O)C(=O)N[C@@H](CC(=O)c2ccccc2N)C(=O)O[C@@H]1C (some centres undefined) | 12.5 (≈ 6.8 µM) | 25 (≈ 13.6 µM) | 1.56 (≈ 0.849 µM) | 1.56 (≈ 0.849 µM)
CCCCCCCCCC(=O)N[C@@H](Cc1c[nH]c2ccccc12)C(=O)N[C@H](CC(N)=O)C(=O)N[C@@H](CCO)C(=O)N[C@@H]1C(=O)NCC(=O)N[C@@H](CCCNC(=O)C(N)Cc2c[nH]c3ccc(F)cc23)C(=O)N[C@@H](CC(=O)O)C(=O)N[C@H](C)C(=O)N[C@@H](CC(=O)O)C(=O)NCC(=O)N[C@H](CO)C(=O)N[C@@H]([C@H](C)CC(=O)O)C(=O)N[C@@H](CC(=O)c2ccccc2N)C(=O)O[C@@H]1C (some centres undefined) | 3.1 (≈ 1.71 µM) | 1.56 (≈ 0.861 µM) | 1.56 (≈ 0.861 µM) | 1.56 (≈ 0.861 µM)
CCCCCCCCCC(=O)N[C@@H](Cc1c[nH]c2ccccc12)C(=O)N[C@H](CC(N)=O)C(=O)N[C@@H](CC(=O)O)C(=O)N[C@@H]1C(=O)NCC(=O)N[C@@H](CCCNC(=O)CC(C)(C)C(=O)O)C(=O)N[C@@H](CC(=O)O)C(=O)N[C@H](C)C(=O)N[C@@H](CC(=O)O)C(=O)NCC(=O)N[C@H](CO)C(=O)N[C@@H]([C@H](C)CC(=O)O)C(=O)N[C@@H](CC(=O)c2ccccc2N)C(=O)O[C@@H]1C | 50 (≈ 28.6 µM) | 50 (≈ 28.6 µM) | 12.5 (≈ 7.15 µM) | 12.5 (≈ 7.15 µM)
CCCCCCCCCC(=O)N[C@@H](Cc1c[nH]c2ccccc12)C(=O)N[C@H](CC(N)=O)C(=O)N[C@@H](CC(=O)O)C(=O)N[C@@H]1C(=O)NCC(=O)N[C@@H](CCCNC(=O)c2cccc(OC)c2N)C(=O)N[C@@H](CC(=O)O)C(=O)N[C@H](C)C(=O)N[C@@H](CC(=O)O)C(=O)NCC(=O)N[C@H](CO)C(=O)N[C@@H]([C@H](C)CC(=O)O)C(=O)N[C@@H](CC(=O)c2ccccc2N)C(=O)O[C@@H]1C | 10 (≈ 5.65 µM) | 10 (≈ 5.65 µM) |  | 0.63 (≈ 0.356 µM)
CCCCCCCCCC(=O)N[C@@H](Cc1c[nH]c2ccccc12)C(=O)N[C@H](CC(N)=O)C(=O)N[C@@H](CC(=O)O)C(=O)N[C@@H]1C(=O)NCC(=O)N[C@@H](CCCNC(=O)c2cccc(C)c2N)C(=O)N[C@@H](CC(=O)O)C(=O)N[C@H](C)C(=O)N[C@@H](CC(=O)O)C(=O)NCC(=O)N[C@H](CO)C(=O)N[C@@H]([C@H](C)CC(=O)O)C(=O)N[C@@H](CC(=O)c2ccccc2N)C(=O)O[C@@H]1C | 10 (≈ 5.7 µM) | 10 (≈ 5.7 µM) |  | 0.63 (≈ 0.359 µM)
CCCCCCCCCC(=O)N[C@@H](Cc1c[nH]c2ccccc12)C(=O)N[C@H](CC(N)=O)C(=O)N[C@@H](CC(=O)O)C(=O)N[C@@H]1C(=O)NCC(=O)N[C@@H](CCCNC(=O)c2cc(C(=O)O)ccc2N)C(=O)N[C@@H](CC(=O)O)C(=O)N[C@H](C)C(=O)N[C@@H](CC(=O)O)C(=O)NCC(=O)N[C@H](CO)C(=O)N[C@@H]([C@H](C)CC(=O)O)C(=O)N[C@@H](CC(=O)c2ccccc2N)C(=O)O[C@@H]1C | 10 (≈ 5.61 µM) | 12.5 (≈ 7.01 µM) | 3.1 (≈ 1.74 µM) | 1.25 (≈ 0.701 µM)

Reference: ChEMBL document CHEMBL1136454, “Synthesis and biological activity of N-Acylated ornithine analogues of daptomycin” (Bioorg Med Chem Lett, 2003)
